As usually defined, the Ki is a dissociation constant, usually derived from enzyme kinetics or from competition with a known ligand. As a reminder, the IC90 is the concentration at which the effect reaches the 90% level. The low end stands for an effect from little substance, the high end for a need for much substance. By bioavailability is commonly meant the share of a dose that reaches the circulation, judged against a reference dose that is usually intravenous. A lower bioavailability goes with poor availability.

This note sets out measurements from ChEMBL document CHEMBL1153435, “Harnessing nature's insight: design of aspartyl protease inhibitors from treatment of drug-resistant HIV to Alzheimer's disease” (J Med Chem, 2009).

*1 amine or outer side, *2 acyl side, *3 side chain or, on linkers, in order; H or OH if unused. Where a SMILES comes first, the peptide text is derived from it. [ ]: non-standard residue; d: D form. LeuΨ(S-CHOHCH2)Ala = CC(C)C[C@H](N[*:1])[C@@H](O)C[C@@H](C)C(=O)[*:2] Where only a bound is given, the exact number is not on record here.

Data set [1] deals with Protease (Human immunodeficiency virus 1, UniProt Q9YQ12). The data set can be described thus: Inhibition of HIV1 protease.
The test system of data set [2] is Human immunodeficiency virus 1. The data set can be described thus: Antiviral activity against HIV1 assessed as inhibition of viral replication. It counts as functional, organism-based. The note with it: for IC95: read-out: CIC95.
The test system of data set [3] is Human immunodeficiency virus 1. Briefly: Antiviral activity against protease inhibitor resistant HIV1 isolates. It counts as functional, organism-based.
Data set [4] addresses Protease (Human immunodeficiency virus 1) (UniProt Q9YQ12).
Data set [5] deals with Beta-secretase 1 (Homo sapiens, UniProt P56817). Briefly: Inhibition of recombinant memapsin 2.
Data set [6] in a line: Oral bioavailability in HIV1 infected patient at 600 mg administered as single dose. The data set is classed as ADME, organism-based. The note with it: human, in vivo.
Data set [7] deals with Human immunodeficiency virus 1. The data set can be described thus: Antiviral activity against laboratory HIV1 strains and primary clinical isolates.
Where [8] appears, read: read-out: ID50 (the source's name).

Sequence of Protease (Q9YQ12 whole entry): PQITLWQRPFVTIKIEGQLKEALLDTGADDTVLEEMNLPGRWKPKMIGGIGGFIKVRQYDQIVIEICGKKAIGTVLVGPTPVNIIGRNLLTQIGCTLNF
Sequence of Beta-secretase 1 (P56817 whole entry): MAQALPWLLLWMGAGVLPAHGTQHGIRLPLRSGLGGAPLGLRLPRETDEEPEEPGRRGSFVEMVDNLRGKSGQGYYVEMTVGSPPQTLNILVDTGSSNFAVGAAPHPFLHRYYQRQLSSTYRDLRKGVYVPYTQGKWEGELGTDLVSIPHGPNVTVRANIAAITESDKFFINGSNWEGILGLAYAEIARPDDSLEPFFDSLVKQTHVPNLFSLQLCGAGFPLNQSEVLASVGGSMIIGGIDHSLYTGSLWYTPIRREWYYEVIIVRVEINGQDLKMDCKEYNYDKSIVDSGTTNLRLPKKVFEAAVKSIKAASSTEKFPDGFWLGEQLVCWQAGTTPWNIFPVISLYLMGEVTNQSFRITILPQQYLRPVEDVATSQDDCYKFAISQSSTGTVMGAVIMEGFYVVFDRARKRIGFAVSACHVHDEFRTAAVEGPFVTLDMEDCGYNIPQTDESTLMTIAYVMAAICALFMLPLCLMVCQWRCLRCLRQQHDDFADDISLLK
Sequence of Protease (Human immunodeficiency virus 1) (Q9YQ12 as listed by the source): as the sequence (Q9YQ12 whole entry) above

As for `COc1ccc(S(=O)(=O)N(CC(C)C)C[C@@H](O)[C@H](Cc2ccccc2)NC(=O)O[C@@H]2CCOCOC2)cc1`, in data set [1], the IC50 worked out at 5 nM.
In data set [1], `COc1ccc(S(=O)(=O)N(CC(C)C)C[C@@H](O)[C@H](Cc2ccccc2)NC(=O)O[C@H]2CC[C@]3(CCCO3)C2)cc1` yielded a Ki of 3.7 nM. Further, the IC50 in data set [2] (setting [8]) came to 265 nM.
In data set [3], `COc1ccc(S(=O)(=O)N(CC(C)C)C[C@@H](O)[C@H](Cc2ccccc2)NC(=O)O[C@H]2CO[C@H]3OCC[C@H]32)cc1` registered an IC50 of 0.5 nM.
`CC(C)(C)NC(=O)[C@@H]1C[C@@H]2CCCC[C@@H]2CN1C[C@@H](O)[C@H](Cc1ccccc1)NC(=O)O[C@H]1CCOC1` displayed an IC50 in data set [1] of 160 nM. Besides, the IC95 in data set [2] was determined as 800 nM.
On to `COc1ccc(S(=O)(=O)N(CC(C)C)C[C@@H](O)[C@H](Cc2ccccc2)NC(=O)[C@@H]2CCO[C@]3(CCCO3)C2)cc1`, for which the affinity in data set [1] corresponds to a Ki of 3.9 nM. The IC50 in data set [2] (setting [8]) amounted to 1200 nM.
For the compound `COc1ccc(S(=O)(=O)N(CC(C)C)C[C@@H](O)[C@H](Cc2ccccc2)NC(=O)[C@@H]2CCC[C@]3(CCCO3)C2)cc1`, the affinity in data set [1] corresponds to a Ki of 2.9 nM.
Turning to `COc1ccc(S(=O)(=O)N(CC(C)C)C[C@@H](O)[C@H](Cc2ccccc2)NC(=O)O[C@H]2CO[C@@H]3OCC[C@@H]32)cc1`, in data set [2] (read-out: IC50), the IC50 was determined as 4.1 nM.
As for `CC(C)(C)NC(=O)[C@@H]1C[C@@H]2CCCC[C@@H]2CN1C[C@@H](O)[C@H](Cc1ccccc1)NC(=O)O[C@H]1CCS(=O)(=O)C1`, in data set [1], the IC50 was determined as 76 nM. The IC95 in data set [2] worked out at 350 nM.
Regarding `COc1ccc(S(=O)(=O)N(CC(C)C)C[C@@H](O)[C@H](Cc2ccccc2)NC(=O)O[C@H]2COC3OCCC[C@@H]32)cc1` (single isomer, unassigned), the Ki in data set [1] came to 2.2 nM. Also, the IC50 in data set [2] (setting [8]) is 4.5 nM.
The compound `CC(C)CN(C[C@@H](O)[C@H](Cc1ccccc1)NC(=O)O[C@H]1CCOC1)S(=O)(=O)c1ccc(N)cc1` gave a 90% effect concentration (IC90) in data set [4] of 40 nM. The Ki in data set [1] was determined as 0.6 nM.
In data set [1], `COc1ccc(S(=O)(=O)N(C[C@@H]2CCC(=O)N2)C[C@@H](O)[C@H](Cc2ccccc2)NC(=O)O[C@H]2CC[C@H]3OCC[C@@H]23)cc1` showed an IC50 of 28 nM and a Ki of 0.16 nM.
In data set [1], `COc1ccc(S(=O)(=O)N(CC(C)C)C[C@@H](O)[C@H](Cc2ccccc2)NC(=O)O[C@H]2CC[C@H]3OCO[C@@H]23)cc1` registered an IC50 of 3.8 nM and a Ki of 0.11 nM.
In turn, `CC(C)(C)NC(=O)[C@@H]1C[C@@H]2CCCC[C@@H]2CN1C[C@@H](O)[C@H](Cc1ccccc1)NC(=O)O[C@H]1CC[C@H]2OCC[C@@H]12` returned an IC50 in data set [1] of 17 nM.
For `CC(C)(C)NC(=O)[C@@H]1C[C@@H]2CCCC[C@@H]2CN1C[C@@H](O)[C@H](Cc1ccccc1)NC(=O)O[C@H]1CO[C@H]2OCC[C@H]21`, in data set [2], the IC95 stood at 46 nM.
On to `CSCC[C@H](NC(=O)[C@@H](NC(=O)OC(C)(C)C)C(C)C)C(=O)N[C@@H](CC(C)C)[C@@H](O)C[C@@H](C)C(=O)N[C@H](C(=O)NCC(C)C)C(C)C`, for which the Ki in data set [5] turned out to be 0.8 nM.
With `CC(C)(C)NC(=O)[C@@H]1C[C@@H]2CCCC[C@@H]2CN1C[C@@H](O)[C@H](Cc1ccccc1)NC(=O)[C@H](CC(N)=O)NC(=O)c1ccc2ccccc2n1`, in data set [2] (setting [8]), the IC50 was 18 nM.
`CC(C)c1nc(CN(C)C(=O)N[C@H](C(=O)N[C@@H](Cc2ccccc2)C[C@H](O)[C@H](Cc2ccccc2)NC(=O)OCc2cncs2)C(C)C)cs1` [RITONAVIR] displayed a bioavailability in data set [6] of 37%.
The compound `COc1ccc(S(=O)(=O)N(CC(C)C)C[C@@H](O)[C@H](Cc2ccccc2)NC(=O)[C@@H]2CCCS(=O)(=O)C2)cc1` registered a Ki in data set [1] of 1.4 nM. Moreover, in data set [2] (setting [8]), the IC50 came to 17 nM.
In the case of `COc1ccc(S(=O)(=O)N(CC(C)C)C[C@@H](O)[C@H](Cc2ccccc2)NC(=O)O[C@H]2CCS(=O)(=O)C2)cc1`, the inhibition constant (Ki) in data set [1] is 1.4 nM. The IC50 in data set [2] (setting [8]) is 19 nM.
As to `CC(C)(C)NC(=O)[C@@H]1C[C@@H]2CCCC[C@@H]2CN1C[C@@H](O)[C@H](Cc1ccccc1)NC(=O)[C@@H](NC(=O)c1ccc2ccccc2n1)[C@H]1CCOC1`, the IC50 in data set [1] was 0.05 nM. The IC95 in data set [2] is 8 nM.
`CC(C)CN(C[C@@H](O)[C@H](Cc1ccccc1)NC(=O)O[C@H]1CO[C@H]2OCC[C@H]21)S(=O)(=O)c1ccc2c(c1)OCO2`: the IC50 in data set [2] (read-out: IC50) came to 1.4 nM.
For `O=C(N[C@@H](Cc1ccccc1)[C@@H](O)C[C@@H](Cc1ccccc1)C(=O)N[C@H]1c2ccccc2C[C@H]1O)O[C@H]1CCOC1`, in data set [1], the IC50 was less than 0.03 nM. For the same compound, the IC95 in data set [2] stood at 3 nM.
The compound `O=C(N[C@@H](Cc1ccccc1)[C@@H](O)C[C@@H](Cc1ccccc1)C(=O)N[C@H]1c2ccccc2C[C@H]1O)OC1CCCC1` had an IC50 in data set [1] of 0.3 nM. For the same compound, the IC95 in data set [2] stood at 400 nM.
With `CC(C)C[C@H](NC(=O)[C@H](CC(N)=O)NC(=O)[C@@H](N)C(C)C)[C@@H](O)C[C@@H](C)C(=O)N[C@@H](C)C(=O)N[C@@H](CCC(=O)O)C(=O)N[C@@H](Cc1ccccc1)C(=O)O` (H-VN[LeuΨ(S-CHOHCH2)Ala]AEF-OH), the Ki in data set [5] was determined as 6.8 nM.
`CC(C)CN(C[C@@H](O)[C@H](Cc1ccccc1)NC(=O)O[C@H]1CO[C@H]2OCC[C@H]21)S(=O)(=O)c1ccc(N)cc1` gave a concentration for an effect of 90% (IC90) in data set [7] of 9 nM. For the same compound, in data set [2] (read-out: IC50), the IC50 turned out to be 4.1 nM.
